Results from patent US5889026A, “4-hydroxy-piperodine derivatives” (Hoffmann-La Roche Inc., priority 1996, dated 1999).
Structures can show the parent of a compound that is named as a salt. Where two headings read alike, the source gives them in different places.

What was measured:
[1] = target: T1, NR1C + NR2A (NMDAR1C-NMDAR2A) (Rattus norvegicus, UniProt Q00959); assay: Electrophysiology on recombinant NMDA receptors, NR1C + NR2A, Xenopus laevis oocytes; assay type: cell-based; conditions: read-out: Electrophysiology, % block by 10 μM, NR1C + NR2A
T1 construct: expressed in transfected cells; host or cells: Xenopus laevis oocytes injected with mRNA (1:1 mixture)
T1 sequence (Q00959 23-1464, other chains not shown): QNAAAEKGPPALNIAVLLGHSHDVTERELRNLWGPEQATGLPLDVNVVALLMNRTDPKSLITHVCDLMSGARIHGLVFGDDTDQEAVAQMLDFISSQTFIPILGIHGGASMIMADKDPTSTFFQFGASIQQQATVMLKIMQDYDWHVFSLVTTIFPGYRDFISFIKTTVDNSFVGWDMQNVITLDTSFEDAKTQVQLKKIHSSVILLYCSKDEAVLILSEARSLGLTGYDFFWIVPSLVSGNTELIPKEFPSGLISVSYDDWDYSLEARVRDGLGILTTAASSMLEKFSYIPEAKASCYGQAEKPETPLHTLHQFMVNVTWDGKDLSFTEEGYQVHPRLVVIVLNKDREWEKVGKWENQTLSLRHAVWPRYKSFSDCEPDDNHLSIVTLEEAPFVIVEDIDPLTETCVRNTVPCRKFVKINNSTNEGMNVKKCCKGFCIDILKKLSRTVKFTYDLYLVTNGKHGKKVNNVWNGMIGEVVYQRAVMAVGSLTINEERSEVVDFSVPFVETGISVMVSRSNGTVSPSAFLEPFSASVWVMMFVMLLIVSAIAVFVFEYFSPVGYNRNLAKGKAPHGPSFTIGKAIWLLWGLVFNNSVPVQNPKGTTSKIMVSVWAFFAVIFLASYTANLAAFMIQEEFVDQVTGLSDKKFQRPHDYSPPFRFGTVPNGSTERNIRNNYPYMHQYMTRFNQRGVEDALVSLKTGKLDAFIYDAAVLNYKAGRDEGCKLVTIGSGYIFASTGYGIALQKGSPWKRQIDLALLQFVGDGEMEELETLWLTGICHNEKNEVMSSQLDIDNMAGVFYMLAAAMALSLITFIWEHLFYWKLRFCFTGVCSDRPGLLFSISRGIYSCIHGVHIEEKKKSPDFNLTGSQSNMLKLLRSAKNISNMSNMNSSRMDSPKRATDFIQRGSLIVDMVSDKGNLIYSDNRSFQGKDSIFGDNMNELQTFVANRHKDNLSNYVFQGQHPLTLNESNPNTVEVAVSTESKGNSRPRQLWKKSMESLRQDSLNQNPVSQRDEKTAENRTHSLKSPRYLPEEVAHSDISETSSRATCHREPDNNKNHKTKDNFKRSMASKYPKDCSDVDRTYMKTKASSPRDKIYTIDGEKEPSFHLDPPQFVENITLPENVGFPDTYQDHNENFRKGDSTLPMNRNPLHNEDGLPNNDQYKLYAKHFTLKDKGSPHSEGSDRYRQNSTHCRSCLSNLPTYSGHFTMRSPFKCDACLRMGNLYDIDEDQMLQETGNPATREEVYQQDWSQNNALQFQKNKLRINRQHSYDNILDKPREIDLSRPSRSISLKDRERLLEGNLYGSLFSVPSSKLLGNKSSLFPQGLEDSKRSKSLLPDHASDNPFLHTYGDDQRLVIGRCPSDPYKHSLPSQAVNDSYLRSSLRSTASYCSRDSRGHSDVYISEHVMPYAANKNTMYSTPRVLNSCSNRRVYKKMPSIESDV

3H-Prazosine binding = assay: 3H-Prazosine binding; conditions: rat brain membranes (minus cerebellum and medulla oblongata); 0.2 nM 3H-Prazosine; 30 minutes at room temperature, pH 7.4
Procedure: 3H-Prazosine binding Male Fullinsdorf albino rats weighing between 150-200 g were used. Membranes were prepared by homogenization of the whole brain minus cerebellum and medulla oblongata with a Plytron (10.000 rpm, 30 seconds), in 25 volumes of a cold Tris-HCl 50 mM, EDTA 10 mM, pH 7.1 buffer. The homogenate was centrifuged at 48.000 g for 10 minutes at 4° C. The pellet was resuspended using the Polytron in the same volume of buffer and the homogenate was incubated at 37° C. for 10 minutes. After centrifugation, the pellet was homogenized in the same buffer and frozen at -80° C. for at least 16 hours but not more than 10 days. For the binding assay the homogenate was thawed at 37° C., centrifuged and the pellet was washed three times as above in a Tris-HCl 5 mM, pH 7.4 cold buffer. The final pellet was resuspended in the same buffer and used at a final concentration of […]. 3H-Prazosine binding experiments were performed using a Tris-HCl 50 mM, pH 7.4 buffer. For displacement experiments 0.2 nM of 3H-Prazosine were used and non specific binding was measured using […] of Chlorpromazine. The incubation time was 30 minutes at room temperature and the assay was stopped by filtration on Whatman GF/B glass fiber filters (Unifilter-96, Canberra Packard S. A., Zurich, Switzerland). The filters were washed 5 times with cold buffer. The radioactivity on the filter was counted on a Packard Top-count microplate scintillation counter after addition of […] of microscint 40 (Canberra Packard S. A., Zurich, Switzerland). The effects of compounds were measured using a minimum of 8 concentrations and repeated at least once. The pooled normalized values were analyzed using a non-linear regression calculation program which provide IC50 with their relative upper and lower 95% confidence limits (RS1, BBN, USA).

[2] = target: T2, NR1C + NR2B (NMDAR1C-NMDAR2B) (Rattus norvegicus, UniProt P35439+Q00960); assay: Electrophysiology on recombinant NMDA receptors, NR1C + NR2B, Xenopus laevis oocytes; assay type: cell-based; conditions: read-out: Electrophysiology, % block by 0.1 μM, NR1C + NR2B
T2 construct: expressed in transfected cells; host or cells: Xenopus laevis oocytes injected with mRNA (1:1 mixture)
T2 sequence (Q00960 27-1482, other chains not shown): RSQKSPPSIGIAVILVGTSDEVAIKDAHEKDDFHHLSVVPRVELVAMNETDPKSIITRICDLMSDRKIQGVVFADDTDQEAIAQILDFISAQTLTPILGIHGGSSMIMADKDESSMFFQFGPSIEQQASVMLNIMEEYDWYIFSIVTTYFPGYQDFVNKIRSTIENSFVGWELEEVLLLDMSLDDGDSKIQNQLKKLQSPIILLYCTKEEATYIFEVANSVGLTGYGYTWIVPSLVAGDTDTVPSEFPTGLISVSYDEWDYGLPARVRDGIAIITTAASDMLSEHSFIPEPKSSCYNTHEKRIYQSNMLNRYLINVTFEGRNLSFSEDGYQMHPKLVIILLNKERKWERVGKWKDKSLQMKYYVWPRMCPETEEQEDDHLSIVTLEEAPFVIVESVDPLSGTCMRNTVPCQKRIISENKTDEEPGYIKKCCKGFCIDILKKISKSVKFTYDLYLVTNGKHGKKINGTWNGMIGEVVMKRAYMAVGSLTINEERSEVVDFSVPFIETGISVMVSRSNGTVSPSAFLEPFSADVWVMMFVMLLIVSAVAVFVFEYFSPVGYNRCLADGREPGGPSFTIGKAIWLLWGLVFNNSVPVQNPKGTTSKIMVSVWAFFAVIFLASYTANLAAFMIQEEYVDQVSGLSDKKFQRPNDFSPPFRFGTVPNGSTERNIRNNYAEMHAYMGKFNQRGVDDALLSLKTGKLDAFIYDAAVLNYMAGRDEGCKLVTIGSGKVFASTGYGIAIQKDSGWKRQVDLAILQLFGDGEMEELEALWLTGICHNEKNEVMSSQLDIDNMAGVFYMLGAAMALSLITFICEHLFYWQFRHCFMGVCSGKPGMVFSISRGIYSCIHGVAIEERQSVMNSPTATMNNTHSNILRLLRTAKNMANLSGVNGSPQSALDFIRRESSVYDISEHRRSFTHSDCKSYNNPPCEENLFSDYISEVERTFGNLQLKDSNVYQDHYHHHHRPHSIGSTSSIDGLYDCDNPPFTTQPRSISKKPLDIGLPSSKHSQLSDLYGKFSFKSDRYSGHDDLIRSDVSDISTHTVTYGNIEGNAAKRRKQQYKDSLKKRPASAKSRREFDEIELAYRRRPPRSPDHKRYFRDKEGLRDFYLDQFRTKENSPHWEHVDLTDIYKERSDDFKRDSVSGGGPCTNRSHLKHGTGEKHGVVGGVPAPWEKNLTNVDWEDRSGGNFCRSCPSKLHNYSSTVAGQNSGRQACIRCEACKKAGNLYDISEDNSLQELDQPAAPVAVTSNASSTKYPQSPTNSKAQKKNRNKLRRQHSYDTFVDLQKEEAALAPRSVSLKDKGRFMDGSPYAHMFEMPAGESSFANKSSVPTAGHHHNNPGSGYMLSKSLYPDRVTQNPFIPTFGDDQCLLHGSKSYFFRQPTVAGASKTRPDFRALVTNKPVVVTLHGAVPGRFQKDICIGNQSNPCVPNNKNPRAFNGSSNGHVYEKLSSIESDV
Procedure: Oocytes of South African frogs (Xenopus laevis) were used for expressing either a combination of the NMDAR1C and NMDAR2A subunits or the NMDAR1C and NMDAR2B subunits. Approximately 3 fmol of a 1:1 mixture of the respective MRNA species were injected into every oocyte. Four to five days later, the ion current through the NMDA receptor channels was measured in voltage clamp experiments (see Methfessel et al., 1986, Pflugers Arch. 407:577 for the methods of oocyte expression and voltage-clamping). The membrane potential was clamped to -80 mV and the receptors were activated by applying a modified Ringer,s solution containing the NMDA-receptor agonists L-asparatate (Asp) and glycine (Gly). Different agonist concentrations were chosen for either subunit combination to account for the different agonist sensitivities of the two types of receptors (70 mM Asp plus 2.5 mM Gly for NMDAR1C-NMDAR2A and 15 mM Asp plus 0.2 mM Gly for NMDAR1C-NMDAR2B). The agonists were applied for 15 s intervals once every 2.5 min by rapid superfusion of the oocyte with agonist containing solution and the amplitude of the agonist-evoked current was measured immediately before the end of each application. After a series of initial control applications, the antagonist to be tested was added to both, the basal Ringer,s and the agonist containing solution. The antagonist concentration applied to oocytes expressing the NR2A subunit was 10 mmol/l, whereas 0.1 mmol/l were applied to the NR2B expressing oocytes. Four to eight oocytes were tested for every compound and NMDA receptor subtype. Oocytes were exposed to the compounds for 5 to 30 min depending on the time needed for reaching an equilibrium block of the NMDA receptor current. For every oocyte the decrease of the current amplitude was expressed as a percentage of the control current measured before application of the compound.

[3] = target: T3, 3H-Ro 25-6981 binding (NMDA receptor) (Rattus norvegicus, UniProt P35439+Q00960); assay: 3H-Ro 25-6981 binding; conditions: rat brain membranes (minus cerebellum and medulla oblongata); 5 nM 3H-Ro 25-6981; 2 hours at 4° C., pH 7.4
T3 construct: NR1 splice forms mixed
T3 sequence (Q00960 27-1482, other chains not shown): as above

[4] = 10 μM compound, Xenopus laevis oocytes, -80 mV, mean of four to eight oocytes
[5] = 0.1 μM compound, Xenopus laevis oocytes, -80 mV, mean of four to eight oocytes

SMILES	IC50 (3H-Prazosine binding)	IC50 [3]	inhibition at 10 µM [1, 4]	inhibition at 0.1 µM [2, 5]	inhibition at 10 µM [1]	inhibition at 0.1 µM [2]
Cc1ccc(CC2(O)CCN(CC(O)COc3ccc(O)cc3)CC2)cc1 (racemic) [A/1, (RS)-1-[2-Hydroxy-3-(4-hydroxy-phenoxy)-propyl]-4-(4-methyl-benzyl)-piperidin-4-ol hydrochloride]	1500 nM	15 nM	–	–	29%	96%
Oc1ccc(CC(O)CN2CCC(O)(Cc3ccccc3)CC2)cc1 (racemic) [L/30, (RS)-4-Benzyl-1-[2-hydroxy-3-(4-hydroxy-phenyl)-propyl]-piperidin-4-ol]	7400 nM	60 nM	–	–	–	–
Cc1ccc(CC2(O)CCN(CC(O)Cc3ccc(O)cc3)CC2)cc1 (racemic) [M/31, (RS)-1-[2-Hydroxy-3-(4-hydroxy-phenyl)-propyl]-4-(4-methyl-benzyl)-piperidin-4-ol]	9700 nM	20 nM	10%	89%	–	–
Oc1ccc(CC(O)CN2CCC(O)(Cc3ccc(Cl)cc3)CC2)cc1 (racemic) [N/32, (RS)-4-(4-Chloro-benzyl)-1-[2-hydroxy-3-(4-hydroxy-phenyl)-propyl]-piperidin-4-ol]	9200 nM	40 nM	19%	81%	–	–
Oc1ccc(OC[C@@H](O)CN2CCC(O)(Cc3ccccc3)CC2)cc1 [B/5, (S)-4-Benzyl-1-[2-hydroxy-3-(4-hydroxy-phenoxy)-propyl]-piperidin-4-ol]	4000 nM	60 nM	–	–	–	–
Oc1ccc(OCCN2CCC(O)(Cc3ccc(F)cc3)CC2)cc1 [D/10, 4-(4-Fluoro-benzyl)-1-[2-(4-hydroxy-phenoxy)-ethyl]-piperidin-4-ol]	3000 nM	40 nM	–	–	–	–
Cc1ccc(CC2(O)CCN(CCOc3ccc(NS(C)(=O)=O)cc3)CC2)cc1 [E/11, N-(4-{2-[4-hydroxy-4-(4-methyl-benzyl)-piperidin-1-yl]-ethoxy}-phenyl)-methanesulfonamide hydrochloride]	5000 nM	30 nM	–	–	27%	91%
CS(=O)(=O)Nc1ccc(OCCN2CCC(O)(Cc3ccc(Cl)cc3)CC2)cc1 [G/13, N-(4-{2-[4-(4-Chloro-benzyl)-4-hydroxy-piperidin-1-yl]-ethoxy}-phenyl)-methanesulfonamide]	9000 nM	30 nM	–	–	–	–
CS(=O)(=O)Nc1ccc(OCCCN2CCC(O)(Cc3ccc(F)cc3)CC2)cc1 [H/14, N-(4-{3-[4-(4-Fluoro-benzyl)-4-hydroxy-piperidin-1-yl]-propoxy}-phenyl)-methanesulfonamide]	1800 nM	40 nM	–	–	–	–
Cc1ccc(CC2(O)CCN(C(C)COc3ccc(O)cc3)CC2)cc1 (stereo not drawn) [I/22, 1-[2-(4-Hydroxy-phenoxy)-1-methyl-ethyl]-4-(4-methyl-benzyl)-piperidin-4-ol]	2500 nM	40 nM	–	–	–	–
Cc1ccc(CC2(O)CCN(CC(=O)Nc3ccc(O)cc3)CC2)cc1 [K/24, 2-[4-Hydroxy-4-(4-methyl-benzyl)-piperidin-1-yl]-N-(4-hydroxy-phenyl)-acetamide]	30000 nM	40 nM	10%	83%	–	–
Cc1ccc(CC2(O)CCN(CCOC(=O)c3ccc(O)cc3)CC2)cc1 [O/34, 4-Hydroxy-benzoic acid 2-[4-hydroxy-4-(4-methyl-benzyl)-piperidin-1-yl]ethylester]	800 nM	10 nM	–	–	–	–
Cc1ccc(CC2(O)CCN(CCCOC(=O)c3ccc(O)cc3)CC2)cc1 [P/35, 4-Hydroxy-benzoic acid 3-[4-hydroxy-4-(4-methyl-benzyl)-piperidin-1-yl]-propylester]	260 nM	3 nM	–	–	–	–
Cc1ccc(CC2(O)CCN(C/C=C/c3ccc(O)cc3)CC2)cc1 [V/41, (E)-1-[3-(4-Hydroxy-phenyl)-allyl]-4-(4-methyl-benzyl)-piperidin-4-ol]	3000 nM	8 nM	–	–	–	–

More lines, in order of falling IC50 (3H-Prazosine binding), values ahead:

IC50 (3H-Prazosine binding)	IC50 [3]	inhibition at 10 µM [1, 4]	inhibition at 0.1 µM [2, 5]	SMILES	inhibition at 10 µM [1]	inhibition at 0.1 µM [2]
20000 nM	70 nM	–	–	O=C(CN1CCC(O)(Cc2ccccc2)CC1)Nc1ccc(O)cc1 [J/23, 2-(4-Benzyl-4-hydroxy-piperidin-1-yl)-N-(4-hydroxy-phenyl)-acetamide]	–	–
7300 nM	16 nM	–	–	O=C(NCCCN1CCC(O)(Cc2ccccc2)CC1)c1ccc(O)cc1 [S/38, N-[3-(4-Benzyl-4-hydroxy-piperidin-1-yl)-propyl]-4-hydroxy-benzamide]	–	–
6600 nM	20 nM	–	–	Cc1ccc(CC2(O)CCN(CC(O)Cc3ccc(O)c(F)c3)CC2)cc1 (racemic) [W/94, (RS)-1-[3-(3-Fluoro-4-hydroxy-phenyl)-2-hydroxy-propyl]-4-(4-methyl-benzyl)-piperidin-4-ol hydrochloride]	–	–
6000 nM	60 nM	–	–	CS(=O)(=O)Nc1ccc(OCCN2CCC(O)(Cc3ccc(F)cc3)CC2)cc1 [F/12, N-(4-{2-[4-(4-fluoro-benzyl)-4-hydroxy-piperidin-1-yl]-ethoxy}-phenyl)-methanesulfonamide]	–	–
5300 nM	6 nM	8%	42%	Cc1ccc(CC2(O)CCN(CCNC(=O)c3ccc(O)cc3)CC2)cc1 [R/37, 4-Hydroxy-N-[2-[4-hydroxy-4-(4-methyl-benzyl)-piperidin-1-yl]-ethyl]-benzamide]	–	–
5000 nM	10 nM	–	–	O=C(NCCN1CCC(O)(Cc2ccccc2)CC1)c1ccc(O)cc1 [Q/36, N-[2-(4-Benzyl-4-hydroxy-piperidin-1-yl)-ethyl]-4-hydroxy-benzamide]	–	–
3500 nM	–	31%	88%	Cc1ccc(CC2(O)CCN(CCOc3ccc(O)cc3)CC2)cc1 [C/9, 1-[2-(4-Hydroxy-phenoxy)-ethyl]-4-(4-methyl-benzyl)-piperidin-4-ol]	–	–
2300 nM	9 nM	–	–	Cc1ccc(CC2(O)CCN(CCCNC(=O)c3ccc(O)cc3)CC2)cc1 [T/39, 4-Hydroxy-N-[3-[4-hydroxy-4-(4-methyl-benzyl)-piperidin-1-yl]-propyl]-benzamide]	–	–
